What was measured:
Assay type in all cases: in vivo
[1] = tested on: gold fish (Japanese gold fish, Carassius auratus) with columnaris disease; test: Treatment for a disease of gold fish (columnaris disease); conditions: bred one week, each ingredient 1 (w/v)%; for Treatment effect: columnaris disease; for Activity of gold fish: macroscopic observation
Description: One per group of gold fish (Japanese gold fish, Carassius auratus) with columnaris disease was bred in an aquarium filled with 2 L of aqueous solution containing 1 w/v % mineral and 1 w/v % α,α-trehalose or α-maltosyl α,α-trehalose at ambient temperature with normal feed for one week. Waters containing either of mineral, α,α-trehalose or α-maltosyl α,α-trehalose as references and water as a control were prepared to breed similarly as above. The fishes were macroscopically observed their activity and treatment effect.

[2] = tested on: short-necked clam (Ruditapes philippinarum); test: Biological activity of short-necked clam (aqueduct extension score) in aqueous mineral solutions; conditions: for Judgment score of biological activity: Experiment 2; for Judgment score for biological activity: total of 18 clams, 16 h
Description: Suitable region for biological activity of short-necked clam (Ruditapes philippinarum), as a fish or shellfish living in seawater, was examined by adding various saccharides to mineral aqueous solutions with various concentrations. In detail, solar salt (85% by weight of sodium chloride and 15% by weight of magnesium) as minerals was dissolved in running water kept in a container for two days to give final concentrations described in the following Table 1. Saccharide (any one of D-glucose, maltose, sucrose, maltitol, α,α-trehalose, α-maltosyl α,α-trehalose, maltotetraose and cyclic tetrasaccharide) was dissolved in the resulting salt solutions to give a final concentration of 1 w/v %, on a dry solid basis. Each of the resulting solutions was placed in a plastic bat. Eighteen pre-selected active short-necked clam in one group were placed in the bat. The bat was shaded with a black cloth and left at ambient temperature (18° C.) for 16 hours. As a control, an aqueous solar salt solution without any saccharides was prepared. Saccharides except for α-maltosyl α,α-trehalose as a saccharide derivatives thereof and cyclic tetrasaccharide were chosen from commercialized products. α-Maltosyl α,α-trehalose as saccharide derivatives of α,α-trehalose in a powder form with a purity of 98 w/w % or over was prepared by the method disclosed in Experiment 4 in Japanese Patent Kokai No. 143876/1995. Cyclic tetrasaccharide in a crystalline form with a purity of 98 w/w % or over, on a dry solid basis, was prepared by the method disclosed in Example A-7 in International Patent Publication No. WO02/10361. Influence of various saccharides was judged by observing the degree of extending aqueduct of the shellfish; 3 points: its aqueduct is well extended; 2 points: its aqueduct is slightly extended; 1 point: its aqueduct is not extended but its shells are opened; 0 point: its shells are closed. The effect on biological activity was judged by the total point of 18 shellfishes. To investigate the effective concentration range of α,α-trehalose or α-maltosyl α,α-trehalose against a mineral solution with a concentration of 1.5 w/v % or 4.5 w/v %, where α,α-trehalose or α-maltosyl α,α-trehalose was remarkably effective in Experiment 1, the following experiment using α,α-trehalose or α-maltosyl α,α-trehalose at a concentration of 0.01, 0.1, 1, 2, 3 or 4 w/v % was carried out according to the method in Experiment 1. As a control, mineral aqueous solutions with a concentration of 1.5 w/v % or 4.5 w/v % without any of the saccharides were prepared and carried out in the same manner.

[3] = tested on: colbicula (Corbicula leana); test: Biological activity of corbicula (aqueduct extension score) in aqueous mineral solutions
From the text: Influence of various saccharides was judged by observing the degree of extending aqueduct of the shellfish; 3 points: its aqueduct is well extended; 2 points: its aqueduct is slightly extended; 1 point: its aqueduct is not extended but its shells are opened; 0 point: its shells are closed. The effect on biological activity was judged by the total point of 18 shellfishes.
Suitable region for biological activity was examined by using colbicula (Corbicula leana) as fishes and shellfishes living in fresh water in the case of enhancing their biological activity by using aqueous mineral solutions containing various saccharides. In detail, solar salt (85% by weight of sodium chloride and 15% by weight of magnesium) as minerals was dissolved in tap water kept in a container for two days to give final concentrations described in the following Table 4. Saccharide (any one of D-glucose, maltose, sucrose, maltitol, α,α-trehalose, α-maltosyl α,α-trehalose, maltotetraose and cyclic tetrasaccharide) was dissolved in the resulting salt solutions to give a final concentration of 1 w/v %, on a dry solid basis. The resulting each solution was placed in a plastic bat. Eighteen pre-selected active shellfishes in one group were placed in the bat. The bat was shaded with a black cloth and left at ambient temperature (18° C.) for 16 hours. As a control, an aqueous solar salt solution without saccharides was prepared. Biological activity of the shellfish was judged by measuring extend their aqueducts macroscopically in the same manner as in Experiment 1.
Effective concentration range of α,α-trehalose or α-maltosyl α,α-trehalose on enhancing biological activity and/or influencing on suitable region for biological activity of colbicula (Corbicula leana) was determined according to the method of Experiment 4 by examining biological activity of the shellfish in the aqueous mineral solution with a mineral concentration of 1.5 w/v %, where α,α-trehalose or α-maltosyl α,α-trehalose was effective in Experiment 4, containing α,α-trehalose or α-maltosyl α,α-trehalose at a concentration of 0.01, 0.1, 1, 2, 3 or 4 w/v %, on a dry solid basis. As a control, a solution containing 1.5 w/v % of mineral without such saccharides was prepared and treated in the same manner.

[4] = mineral 1.5 w/v %, saccharide 0.01 w/v %
[5] = mineral 1.5 w/v %, saccharide 0.1 w/v %
[6] = mineral 1.5 w/v %, saccharide 1 w/v %
[7] = mineral 1.5 w/v %, saccharide 2 w/v %
[8] = mineral 1.5 w/v %, saccharide 3 w/v %
[9] = mineral 1.5 w/v %, saccharide 4 w/v %
[10] = mineral 4.5 w/v %, saccharide 0.01 w/v %
[11] = mineral 4.5 w/v %, saccharide 0.1 w/v %
[12] = mineral 4.5 w/v %, saccharide 1 w/v %
[13] = mineral 4.5 w/v %, saccharide 2 w/v %
[14] = mineral 4.5 w/v %, saccharide 3 w/v %
[15] = mineral 4.5 w/v %, saccharide 4 w/v %
[16] = mineral 0 w/v %, saccharide 1 w/v %
[17] = mineral 0.5 w/v %, saccharide 1 w/v %
[18] = mineral 1.0 w/v %, saccharide 1 w/v %
[19] = mineral 2.0 w/v %, saccharide 1 w/v %
[20] = mineral 2.5 w/v %, saccharide 1 w/v %
[21] = mineral 3.0 w/v %, saccharide 1 w/v %
[22] = mineral 3.5 w/v %, saccharide 1 w/v %
[23] = mineral 4.0 w/v %, saccharide 1 w/v %
[24] = mineral 5.0 w/v %, saccharide 1 w/v %
[25] = mineral 5.5 w/v %, saccharide 1 w/v %
[26] = mineral 6.0 w/v %, saccharide 1 w/v %
[27] = Experiment 5, mineral 1.5 w/v %, saccharide 0.01 w/v %
[28] = Experiment 5, mineral 1.5 w/v %, saccharide 0.1 w/v %
[29] = Experiment 5, mineral 1.5 w/v %, saccharide 1 w/v %
[30] = Experiment 5, mineral 1.5 w/v %, saccharide 2 w/v %
[31] = Experiment 5, mineral 1.5 w/v %, saccharide 3 w/v %
[32] = Experiment 5, mineral 1.5 w/v %, saccharide 4 w/v %
[33] = mineral concentration 0, saccharide 1 w/v %, total of 18 shellfishes, 16 h
[34] = mineral concentration 0.5, saccharide 1 w/v %, total of 18 shellfishes, 16 h
[35] = mineral concentration 1.0, saccharide 1 w/v %, total of 18 shellfishes, 16 h
[36] = mineral concentration 1.5, saccharide 1 w/v %, total of 18 shellfishes, 16 h
[37] = mineral concentration 2.0, saccharide 1 w/v %, total of 18 shellfishes, 16 h
[38] = mineral concentration 2.5, saccharide 1 w/v %, total of 18 shellfishes, 16 h
[39] = mineral concentration 3.0, saccharide 1 w/v %, total of 18 shellfishes, 16 h

## OC[C@H]1O[C@H](O[C@H]2O[C@H](CO)[C@@H](O)[C@H](O)[C@H]2O)[C@H](O)[C@@H](O)[C@@H]1O [α,α-Trehalose, α,α-trehalose]
[1]
  Treatment effect: Bad
  Activity of gold fish: Good
[2]; [4]
  Judgment score of biological activity: 19
[2]; [5]
  Judgment score of biological activity: 38
[2]; [6]
  Judgment score of biological activity: 44
  Judgment score for biological activity: 44
[2]; [7]
  Judgment score of biological activity: 47
[2]; [8]
  Judgment score of biological activity: 38
[2]; [9]
  Judgment score of biological activity: 21
[2]; [10]
  Judgment score of biological activity: 21
[2]; [11]
  Judgment score of biological activity: 35
[2]; [12]
  Judgment score of biological activity: 50
  Judgment score for biological activity: 49
[2]; [13]
  Judgment score of biological activity: 51
[2]; [14]
  Judgment score of biological activity: 31
[2]; [15]
  Judgment score of biological activity: 18
[2]; [16]
  Judgment score for biological activity: 12
[2]; [17]
  Judgment score for biological activity: 16
[2]; [18]
  Judgment score for biological activity: 38
[2]; [19]
  Judgment score for biological activity: 47
[2]; [20]
  Judgment score for biological activity: 51
[2]; [21]
  Judgment score for biological activity: 54
[2]; [22]
  Judgment score for biological activity: 50
[2]; [23]
  Judgment score for biological activity: 50
[2]; [24]
  Judgment score for biological activity: 34
[2]; [25]
  Judgment score for biological activity: 10
[2]; [26]
  Judgment score for biological activity: 5
[3]; [27]
  Judgment score of biological activity: 21
[3]; [28]
  Judgment score of biological activity: 39
[3]; [29]
  Judgment score of biological activity: 52
[3]; [30]
  Judgment score of biological activity: 48
[3]; [31]
  Judgment score of biological activity: 39
[3]; [32]
  Judgment score of biological activity: 25
[3]; [33]
  Judgment score of biological activity: 54
[3]; [34]
  Judgment score of biological activity: 53
[3]; [35]
  Judgment score of biological activity: 52
[3]; [36]
  Judgment score of biological activity: 49
[3]; [37]
  Judgment score of biological activity: 42
[3]; [38]
  Judgment score of biological activity: 20
[3]; [39]
  Judgment score of biological activity: 6

## OC[C@H]1O[C@H](O[C@H]2O[C@H](CO)[C@@H](O[C@H]3O[C@H](CO)[C@@H](O[C@H]4O[C@H](CO)[C@@H](O)[C@H](O)[C@H]4O)[C@H](O)[C@H]3O)[C@H](O)[C@H]2O)[C@H](O)[C@@H](O)[C@@H]1O [α-Maltosyl α,α-trehalose, α-maltosyl α,α-trehalose]
[1]
  Treatment effect: Bad
  Activity of gold fish: Good
[2]; [4]
  Judgment score of biological activity: 18
[2]; [5]
  Judgment score of biological activity: 35
[2]; [6]
  Judgment score of biological activity: 41
  Judgment score for biological activity: 40
[2]; [7]
  Judgment score of biological activity: 43
[2]; [8]
  Judgment score of biological activity: 34
[2]; [9]
  Judgment score of biological activity: 16
[2]; [10]
  Judgment score of biological activity: 16
[2]; [11]
  Judgment score of biological activity: 37
[2]; [12]
  Judgment score of biological activity: 44
  Judgment score for biological activity: 45
[2]; [13]
  Judgment score of biological activity: 45
[2]; [14]
  Judgment score of biological activity: 30
[2]; [15]
  Judgment score of biological activity: 15
[2]; [16]
  Judgment score for biological activity: 11
[2]; [17]
  Judgment score for biological activity: 14
[2]; [18]
  Judgment score for biological activity: 36
[2]; [19]
  Judgment score for biological activity: 45
[2]; [20]
  Judgment score for biological activity: 49
[2]; [21]
  Judgment score for biological activity: 53
[2]; [22]
  Judgment score for biological activity: 50
[2]; [23]
  Judgment score for biological activity: 47
[2]; [24]
  Judgment score for biological activity: 33
[2]; [25]
  Judgment score for biological activity: 11
[2]; [26]
  Judgment score for biological activity: 2
[3]; [27]
  Judgment score of biological activity: 19
[3]; [28]
  Judgment score of biological activity: 35
[3]; [29]
  Judgment score of biological activity: 45
[3]; [30]
  Judgment score of biological activity: 41
[3]; [31]
  Judgment score of biological activity: 34
[3]; [32]
  Judgment score of biological activity: 21
[3]; [33]
  Judgment score of biological activity: 54
[3]; [34]
  Judgment score of biological activity: 53
[3]; [35]
  Judgment score of biological activity: 45
[3]; [36]
  Judgment score of biological activity: 44
[3]; [37]
  Judgment score of biological activity: 37
[3]; [38]
  Judgment score of biological activity: 24
[3]; [39]
  Judgment score of biological activity: 4
